The values that follow come from ChEMBL document CHEMBL1137093, “Synthesis, receptor binding and functional studies of mesoridazine stereoisomers” (Bioorg Med Chem Lett, 2004).

Where “and” joins values, the source holds several entries; their conditions need not be identical. Identical values can stand only once.

The target in test [1] is T1, D(1A) dopamine receptor (Homo sapiens, UniProt P21728).
Description: Binding affinity towards human D1 dopamine receptor was determined by using [3H]-SCH- 23390 as radioligand
Test [2] addresses T2, 5-hydroxytryptamine receptor 1A (Homo sapiens, UniProt P08908).
T2 sequence (P08908 whole entry): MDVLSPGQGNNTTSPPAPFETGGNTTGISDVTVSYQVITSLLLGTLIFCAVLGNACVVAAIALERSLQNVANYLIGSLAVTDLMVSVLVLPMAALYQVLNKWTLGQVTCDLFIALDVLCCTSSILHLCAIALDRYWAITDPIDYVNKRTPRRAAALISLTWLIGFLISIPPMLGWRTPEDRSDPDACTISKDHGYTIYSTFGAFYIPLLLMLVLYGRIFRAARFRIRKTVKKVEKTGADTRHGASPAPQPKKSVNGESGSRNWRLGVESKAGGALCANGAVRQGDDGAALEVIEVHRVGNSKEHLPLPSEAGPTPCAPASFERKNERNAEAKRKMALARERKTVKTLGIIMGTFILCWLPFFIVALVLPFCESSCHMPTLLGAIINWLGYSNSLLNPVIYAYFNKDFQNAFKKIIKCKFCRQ
The test can be described thus: Binding affinity towards human 5-hydroxytryptamine 1A receptor was determined by using [3H]8-OH-DPAT as radioligand.

Test [3] deals with T3, 5-hydroxytryptamine receptor 2C (Rattus norvegicus, UniProt P08909).
T3 sequence (P08909 whole entry): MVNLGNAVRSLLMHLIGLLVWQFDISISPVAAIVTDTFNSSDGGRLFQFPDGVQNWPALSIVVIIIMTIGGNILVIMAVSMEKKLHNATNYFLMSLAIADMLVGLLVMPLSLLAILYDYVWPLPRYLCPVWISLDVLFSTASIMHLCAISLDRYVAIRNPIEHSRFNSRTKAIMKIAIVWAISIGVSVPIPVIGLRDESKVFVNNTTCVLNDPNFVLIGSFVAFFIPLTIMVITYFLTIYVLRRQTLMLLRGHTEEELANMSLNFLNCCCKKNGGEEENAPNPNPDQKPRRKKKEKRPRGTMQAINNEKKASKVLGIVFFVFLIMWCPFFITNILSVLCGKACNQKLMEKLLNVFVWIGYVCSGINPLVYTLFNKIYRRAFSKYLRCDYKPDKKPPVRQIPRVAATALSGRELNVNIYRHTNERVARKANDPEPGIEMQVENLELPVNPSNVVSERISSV
The test can be described thus: Binding affinity towards rat 5-hydroxytryptamine 2C receptor was determined by using [3H]mesulergine as radioligand.

Test [4] is described as follows: Antagonism was determined as concentration required to inhibit quinpirole-induced mitogenesis in CHOp cells.
The target in test [5] is T4, D(2) dopamine receptor (Homo sapiens, UniProt P14416).
Description: Binding affinity towards human D2 dopamine receptor was determined by using [3H]YM-09151-2 as radioligand
Test [6] addresses T5, 5-hydroxytryptamine receptor 2A (Rattus norvegicus, UniProt P14842). Description: Binding affinity towards rat 5-hydroxytryptamine 2A receptor was determined by using [3H]-ketanserin as radioligand.
In test [7] the target is T1, D(1A) dopamine receptor. Description: Antagonism of D1 dopamine receptor of human was determined in C6D1 low-density cells by using cyclic AMP assay.
The target in a further test is D(3) dopamine receptor (Homo sapiens, UniProt P35462).
Test [8] addresses T4, D(2) dopamine receptor. The source holds these as a separate data set.
Description: High binding affinity towards human D2 dopamine receptor was determined by using [3H]YM-09151-2 as radioligand
In test [9] the target is T4, D(2) dopamine receptor. The source holds these as a separate data set.
Test [10] deals with T4, D(2) dopamine receptor. This is another data set of the same source.
Description: Concentration required to inhibit [3H]YM-09151-2 binding to human D2 dopamine receptor
Test [11] concerns the target 5-hydroxytryptamine receptor 2A (Rattus norvegicus) (UniProt P14842).
The target in test [12] is T5, 5-hydroxytryptamine receptor 2A. The test can be described thus: Antagonism of 5-hydroxytryptamine 2A receptor was determined using rat aortal strip contraction assay.

T4 sequence (P14416 whole entry): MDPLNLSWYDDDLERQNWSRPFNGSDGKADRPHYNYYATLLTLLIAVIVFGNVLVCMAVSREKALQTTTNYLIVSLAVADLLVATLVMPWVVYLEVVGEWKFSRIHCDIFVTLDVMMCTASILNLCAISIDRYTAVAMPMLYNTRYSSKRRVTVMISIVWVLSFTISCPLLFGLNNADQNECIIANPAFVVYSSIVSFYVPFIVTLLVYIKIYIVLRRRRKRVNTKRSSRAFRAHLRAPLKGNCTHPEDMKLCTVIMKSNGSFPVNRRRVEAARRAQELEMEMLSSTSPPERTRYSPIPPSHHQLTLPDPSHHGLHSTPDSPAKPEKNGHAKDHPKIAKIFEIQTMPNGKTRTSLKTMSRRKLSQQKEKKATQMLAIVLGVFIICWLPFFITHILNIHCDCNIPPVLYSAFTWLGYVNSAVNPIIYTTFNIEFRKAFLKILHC
T1 sequence (P21728 whole entry): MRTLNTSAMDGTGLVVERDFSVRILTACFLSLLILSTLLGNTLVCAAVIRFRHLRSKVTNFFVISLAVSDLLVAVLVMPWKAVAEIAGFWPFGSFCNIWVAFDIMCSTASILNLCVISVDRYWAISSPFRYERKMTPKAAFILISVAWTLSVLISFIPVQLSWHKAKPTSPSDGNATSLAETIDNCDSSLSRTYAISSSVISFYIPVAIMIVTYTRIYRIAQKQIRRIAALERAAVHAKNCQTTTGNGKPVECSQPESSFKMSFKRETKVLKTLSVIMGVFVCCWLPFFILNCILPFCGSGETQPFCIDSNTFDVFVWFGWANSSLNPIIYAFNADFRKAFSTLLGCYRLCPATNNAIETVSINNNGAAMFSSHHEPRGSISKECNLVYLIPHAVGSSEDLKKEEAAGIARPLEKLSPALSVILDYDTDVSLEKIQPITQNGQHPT
T5 sequence (P14842 whole entry): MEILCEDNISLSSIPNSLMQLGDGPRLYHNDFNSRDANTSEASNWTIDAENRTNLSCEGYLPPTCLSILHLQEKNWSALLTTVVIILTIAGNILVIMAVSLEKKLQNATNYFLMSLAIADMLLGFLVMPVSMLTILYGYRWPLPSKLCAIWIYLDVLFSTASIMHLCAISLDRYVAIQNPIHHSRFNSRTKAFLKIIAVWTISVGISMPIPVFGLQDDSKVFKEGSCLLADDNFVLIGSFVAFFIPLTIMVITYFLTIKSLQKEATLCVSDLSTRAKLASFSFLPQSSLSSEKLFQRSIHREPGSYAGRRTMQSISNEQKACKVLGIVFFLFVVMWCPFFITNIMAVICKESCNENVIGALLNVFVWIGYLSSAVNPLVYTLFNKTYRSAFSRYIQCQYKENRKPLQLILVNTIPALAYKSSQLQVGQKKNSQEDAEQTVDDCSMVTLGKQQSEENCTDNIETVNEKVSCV
5-hydroxytryptamine receptor 2A (Rattus norvegicus), sequence (P14842 whole entry): as above
D(3) dopamine receptor, sequence (P35462 whole entry): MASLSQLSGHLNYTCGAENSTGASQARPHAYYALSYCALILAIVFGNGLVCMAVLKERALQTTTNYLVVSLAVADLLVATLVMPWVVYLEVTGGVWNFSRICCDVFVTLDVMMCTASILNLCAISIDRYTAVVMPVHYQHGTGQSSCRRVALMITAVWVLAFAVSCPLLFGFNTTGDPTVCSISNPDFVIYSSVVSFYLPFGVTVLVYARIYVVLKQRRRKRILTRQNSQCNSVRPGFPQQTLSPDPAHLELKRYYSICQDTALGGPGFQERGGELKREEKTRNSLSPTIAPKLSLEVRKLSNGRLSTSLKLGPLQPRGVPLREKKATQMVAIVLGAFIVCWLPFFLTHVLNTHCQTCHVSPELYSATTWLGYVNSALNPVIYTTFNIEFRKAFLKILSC
Description for D(3) dopamine receptor: Binding affinity towards human D3 dopamine receptor was determined by using [3H]YM-09151-2 as radioligand

Take `CN1CCCC[C@H]1CCN1c2ccccc2Sc2ccc([S@](C)=O)cc21`: the Ki amounted to 620 nM on D(1A) dopamine receptor [1]; 395 nM in test [2]; 410 nM in [3]; 426 nM on D(2) dopamine receptor [5]; 414 nM in [6]; 197 nM on D(3) dopamine receptor. Also, the IC50 in test [4] was 232 nM and 408 nM; against D(1A) dopamine receptor [7] it was 1250 nM.
Consider `CN1CCCC[C@@H]1CCN1c2ccccc2Sc2ccc([S@@](C)=O)cc21`, for which the Ki at D(2) dopamine receptor [8] turned out to be 1.2 nM; at D(1A) dopamine receptor [1], 317 nM; in test [2], 64 nM; in test [3] it was 112 nM; at D(2) dopamine receptor [9], 1840 nM; in test [6] it was 19 nM. The Ki at D(3) dopamine receptor was 26 nM. The IC50 was 4 nM and 16 nM in [4]; 63 nM against D(2) dopamine receptor [10]; 460 nM against D(1A) dopamine receptor [7]. In test [11], the Ke is 2.5 nM. Moreover, in [12], the Kb was 2.51 nM.
`CN1CCCCC1CCN1c2ccccc2Sc2ccc([S+](C)[O-])cc21` (single isomer, unassigned; 2) [listing 1 of 2 here]: the Ki on D(2) dopamine receptor [8] was found to be 2.2 nM; at D(1A) dopamine receptor [1], 103 nM; in test [2], 105 nM; in test [3], 412 nM; at D(2) dopamine receptor [9], 1540 nM; in [6], 55 nM. Also, the Ki at D(3) dopamine receptor is 23 nM. In addition, the IC50 in [4] is 10 nM and 35 nM; on D(2) dopamine receptor [10], 77 nM; against D(1A) dopamine receptor [7], 137 nM. The same compound gave a Kb in test [12] of 6.31 nM.
In turn, `CN1CCCCC1CCN1c2ccccc2Sc2ccc([S+](C)[O-])cc21` (single isomer, unassigned; 2) [listing 2 of 2 here] registered a Ke in test [11] of 7 nM.
On to `CN1CCCCC1CCN1c2ccccc2Sc2ccc([S+](C)[O-])cc21` (single isomer, unassigned; 3) [listing 1 of 2 here], for which the Ki at D(1A) dopamine receptor [1] was found to be 1960 nM; in test [2] it was 349 nM; in test [3], 704 nM; on D(2) dopamine receptor [5], 304 nM; in test [6] it was 112 nM; at D(3) dopamine receptor, 95 nM. Also, the IC50 was 161 nM and 256 nM in test [4]; 837 nM at D(2) dopamine receptor [10]. In [12], this compound had a Kb of 25.1 nM.
`CN1CCCCC1CCN1c2ccccc2Sc2ccc([S+](C)[O-])cc21` (single isomer, unassigned; 3) [listing 2 of 2 here] displayed a Ke in test [11] of 28 nM.
